Like-named read-outs stand apart in the source and are kept apart here.
Target: T1, VAV1 (Homo sapiens, UniProt P15498+Q96SW2)
T1 construct: A heterozygous VAV1 C-terminal HiBiT knock-in pool was generated at Monte Rosa Therapeutics from a clonal Jurkat cell; endogenous in cells; host or cells: Jurkat clone stably expressing LgBiT, homozygous GSPT1-G575N; heterozygous VAV1-HiBiT knock-in pool
Assay: VAV1 degradation activity, VAV1-HiBiT knock-in Jurkat luminescence assay (Example A, Table 1)
Type: cell-based
Conditions: VAV1-HiBiT knock-in Jurkat cells, luminescence read at 6 and 24 hours; for Dmax: Jurkat
In short: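 Jurkat cells carrying VAV1-HiBiT knock-in, plated in RPMI/10% FBS with Endurazine live-cell substrate and pre-incubated ~16 h at 37° C. Compound dosed from 10 μM stock; luminescence read 6 and 24 h later. Response normalised to plate negative/positive controls, EC50 from 3-parameter logistic fit (hillslope 1).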

[1] = read-out: VAV1 DC50 (nM), class

Structure (SMILES)	Dmax (read-out: VAV1 Dmax %)	Dmax (read-out: VAV1 Dmax %, class)	DC50 (read-out: VAV1 DC50)	DC50 [1]
CC1CCN(Cc2ccc(-c3cccc(C4CCC(=O)NC4=O)c3Cl)cc2)C1=O (stereo not shown) [Compound 290]	92.9%	> 90%	16.9 nM	≤ 100 nM
O=C1CCC(c2cccc(-c3ccc(CN4CC5CC5C4=O)cc3)c2Cl)C(=O)N1 (stereo not shown) [Compound 291]	93.1%	> 90%	21.3 nM	≤ 100 nM
O=C1CCC(c2cccc(-c3ccc(CN4Cc5cccnc5C4=O)cc3)c2Cl)C(=O)N1 (stereo not shown) [Compound 299]	91.6%	> 90%	91.5 nM	≤ 100 nM
O=C1CCC(c2cccc(-c3ccc(CN4Cc5cnccc5C4=O)cc3)c2Cl)C(=O)N1 (stereo not shown) [Compound 300]	94.3%	> 90%	17.1 nM	≤ 100 nM
O=C1CCC(c2cccc(-c3ccc(CN4Cc5ccncc5C4=O)cc3)c2Cl)C(=O)N1 (stereo not shown) [Compound 301]	86.2%	60 to 90%	71.2 nM	≤ 100 nM
O=C1CCC(c2cccc(-c3ccc(CN4CCOCC4=O)cc3)c2Cl)C(=O)N1 (stereo not shown) [Compound 302]	78%	60 to 90%	92.1 nM	≤ 100 nM
C[C@@H]1CCC(=O)N1c1ccc(-c2cccc(C3CCC(=O)NC3=O)c2Cl)cc1 (stereo partly shown) [Compound 303]	93.5%	> 90%	13.9 nM	≤ 100 nM
CC1CCN(c2ccc(-c3cccc(C4CCC(=O)NC4=O)c3Cl)cc2)C1=O (stereo not shown) [Compound 304]	72%	60 to 90%	274 nM	100 to 1000 nM
O=C1CCC(c2cccc(-c3ccc(N4C(=O)OCCC4C(F)(F)F)cc3)c2Cl)C(=O)N1 (stereo not shown) [Compound 305]	93%	> 90%	19.6 nM	≤ 100 nM
O=C1CCC(c2cccc(-c3ccc(N4CC(C(F)(F)F)OCC4=O)cc3)c2Cl)C(=O)N1 (stereo not shown) [Compound 306]	89.1%	60 to 90%	49.2 nM	≤ 100 nM
O=C1CCC(c2cccc(-c3ccc(N4CCN5CCCC5C4=O)cc3)c2Cl)C(=O)N1 (stereo not shown) [Compound 308]	93.8%	> 90%	22.5 nM	≤ 100 nM
O=C1CCC(c2cccc(-c3ccc(N4CCn5ccnc5C4=O)cc3)c2Cl)C(=O)N1 (stereo not shown) [Compound 309]	89.6%	60 to 90%	39.4 nM	≤ 100 nM
O=C1CCC(c2cccc(-c3ccc(N4CCC5(COC5)CC4=O)cc3)c2Cl)C(=O)N1 (stereo not shown) [Compound 310]	90.5%	> 90%	23 nM	≤ 100 nM
CC1(C)CN(c2ccc(-c3cccc(C4CCC(=O)NC4=O)c3Cl)cc2)C(=O)CO1 (stereo not shown) [Compound 311]	92.7%	> 90%	21.9 nM	≤ 100 nM
O=C1CCC(c2cccc(-c3ccc(N4CCn5cncc5C4=O)cc3)c2Cl)C(=O)N1 (stereo not shown) [Compound 315]	89.8%	60 to 90%	22 nM	≤ 100 nM
CN1CC(=O)N(c2ccc(-c3cccc(C4CCC(=O)NC4=O)c3Cl)cc2)CC1(C)C (stereo not shown) [Compound 317]	93.2%	> 90%	13.6 nM	≤ 100 nM
O=C1CCC(c2cccc(-c3ccc(N4CC5CC5C4=O)cc3)c2Cl)C(=O)N1 (stereo not shown) [Compound 319]	80.8%	60 to 90%	104 nM	100 to 1000 nM
O=C1CCC(c2cccc(-c3ccc(N4CCOC(F)(F)C4=O)cc3)c2Cl)C(=O)N1 (stereo not shown) [Compound 320]	84.9%	60 to 90%	102 nM	100 to 1000 nM
O=C1CCC(c2cccc(-c3ccc(N4CCn5nccc5C4=O)cc3)c2Cl)C(=O)N1 (stereo not shown) [Compound 321]	88.1%	60 to 90%	22.5 nM	≤ 100 nM
O=C1CCC(c2cccc(-c3ccc(N4CCCC(F)(F)C4=O)cc3)c2Cl)C(=O)N1 (stereo not shown) [Compound 322]	93.9%	> 90%	17.7 nM	≤ 100 nM
CN1CC(=O)N(c2ccc(-c3cccc(C4CCC(=O)NC4=O)c3Cl)cc2)c2cncnc21 (stereo not shown) [Compound 326]	90.9%	> 90%	16.2 nM	≤ 100 nM

Continued by falling DC50 (read-out: VAV1 DC50), values first:

Dmax (read-out: VAV1 Dmax %)	Dmax (read-out: VAV1 Dmax %, class)	DC50 (read-out: VAV1 DC50)	DC50 [1]	Structure (SMILES)
93.5%	> 90%	13.4 nM	≤ 100 nM	CC1CCC(=O)N1Cc1ccc(-c2cccc(C3CCC(=O)NC3=O)c2Cl)cc1 (stereo not shown) [Compound 297]
93.7%	> 90%	12.7 nM	≤ 100 nM	CC1(C)CCCC(=O)N1Cc1ccc(-c2cccc(C3CCC(=O)NC3=O)c2Cl)cc1 (stereo not shown) [Compound 292]
93.3%	> 90%	11.8 nM	≤ 100 nM	Cn1ncc2c1CCC(=O)N2c1ccc(-c2cccc(C3CCC(=O)NC3=O)c2Cl)cc1 (stereo not shown) [Compound 316]
95.4%	> 90%	11.7 nM	≤ 100 nM	O=C1CCC(c2cccc(-c3ccc(CN4Cc5ncccc5C4=O)cc3)c2Cl)C(=O)N1 (stereo not shown) [Compound 298]
95%	> 90%	10.6 nM	≤ 100 nM	O=C1CCC(c2cccc(-c3ccc(N4CCCC(F)C4=O)cc3)c2Cl)C(=O)N1 (stereo not shown) [Compound 323]
93.8%	> 90%	10.1 nM	≤ 100 nM	O=C1CCC(c2cccc(-c3ccc(CN4C(=O)CCC45CC5)cc3)c2Cl)C(=O)N1 (stereo not shown) [Compound 296]
94.8%	> 90%	9.84 nM	≤ 100 nM	CC1CCCC(=O)N1Cc1ccc(-c2cccc(C3CCC(=O)NC3=O)c2Cl)cc1 (stereo not shown) [Compound 295]
96.1%	> 90%	9.68 nM	≤ 100 nM	CC1CCC(=O)N(c2ccc(-c3cccc(C4CCC(=O)NC4=O)c3Cl)cc2)C1 (stereo not shown) [Compound 314]
96%	> 90%	9.64 nM	≤ 100 nM	O=C1CCC(c2cccc(-c3ccc(N4CC5CC5CC4=O)cc3)c2Cl)C(=O)N1 (stereo not shown) [Compound 307]
95.7%	> 90%	8.3 nM	≤ 100 nM	O=C1CCC(c2cccc(-c3ccc(CN4C(=O)CCCC45CC5)cc3)c2Cl)C(=O)N1 (stereo not shown) [Compound 294]
96.1%	> 90%	7.99 nM	≤ 100 nM	O=C1CCC(c2cccc(-c3ccc(N4CCC5CC5C4=O)cc3)c2Cl)C(=O)N1 (stereo not shown) [Compound 312]
95.3%	> 90%	7.02 nM	≤ 100 nM	Cn1ncc2c1CCN(c1ccc(-c3cccc(C4CCC(=O)NC4=O)c3Cl)cc1)C2=O (stereo not shown) [Compound 313]
95.8%	> 90%	6.99 nM	≤ 100 nM	O=C1CCC(c2cccc(-c3ccc(CN4C(=O)CCC45CCC5)cc3)c2Cl)C(=O)N1 (stereo not shown) [Compound 293]
96.2%	> 90%	6.66 nM	≤ 100 nM	C[C@H]1COCC(=O)N1c1ccc(-c2cccc(C3CCC(=O)NC3=O)c2Cl)cc1 (stereo partly shown) [Compound 325]
97.2%	> 90%	5.24 nM	≤ 100 nM	COC1CCCC(=O)N1c1ccc(-c2cccc(C3CCC(=O)NC3=O)c2Cl)cc1 (stereo not shown) [Compound 318]
97.8%	> 90%	3.46 nM	≤ 100 nM	O=C1CCC(c2cccc(-c3ccc(N4C(=O)COCC45CC5)cc3)c2Cl)C(=O)N1 (stereo not shown) [Compound 324]

From US12257247B2 (Monte Rosa Therapeutics AG, priority 2023, dated 2025)
